Assay: distribution coefficient log P (octanol/water) of raw materials
Assay type: physicochemical
Details: raw material of one-component malodor suppressant system
Excerpt: In the fields of organic and medicinal chemistry, a distribution (P) coefficient is the ratio of concentrations of a compound in the two phases of a mixture of two immiscible solvents at equilibrium. […] One of the solvents chosen is water while the second is octanol. […] The partition coefficient is the ratio of concentrations of un-ionized compound between the two solutions. The logarithm of the ratio of the concentrations of the un-ionized solute in the solvents is called log P:
[formula] The log P (octanol/water) is referred hereinafter as “log P”, unless otherwise specified.

Compound | log P (octanol/water)
CC1COCc2cc3c(cc21)C(C)(C)C(C)C3(C)C (stereo not drawn) [S3, Galaxolide] | 5.93
Operanide [S4] | 4.90
CCCCCCCCCCCCCC(=O)OC(C)C [S1, isopropylmyristate] | 7.41

Source: US11779530B2, “Composition for the permanent deformation of hair having reduced odor” (Noxell Corporation, priority 2016, dated 2023)
